Test results as given in DBAASP.
Converted amounts (≈) assume the structure as drawn.

Columns and labels:
Assay in all cases: ≥ marks a high value that may be exact or a test limit, other limits are often not marked, values filed in µg/mL are converted to µM
[1] = test system: Staphylococcus aureus NCTC 12493
[2] = test system: Enterococcus faecalis NCTC 12697
[3] = test system: Staphylococcus aureus NCTC 10788
[4] = test system: Klebsiella pneumoniae ATCC 43816
[5] = test system: Pseudomonas aeruginosa ATCC 27853
[6] = test system: Escherichia coli NCTC 10418
[7] = test system: Candida albicans NCYC 1467
[8] = test system: Salmonella enterica subsp. enterica serovar Enteritidis
[9] = test system: Staphylococcus aureus NCTC 8325
[10] = test system: Staphylococcus aureus ATCC 29213
[11] = test system: Escherichia coli ATCC 25922
[12] = test system: Candida albicans ATCC 90028
[13] = test system: Pseudomonas aeruginosa H103
[14] = test system: Enterococcus faecalis ATCC 29212
[15] = test system: Staphylococcus epidermidis
[16] = test system: Salmonella enterica serovar Typhimurium
Candida albicans = test system: Candida albicans
[17] = test system: Staphylococcus aureus ATCC 25923
Escherichia coli UB1005 = test system: Escherichia coli UB1005

`CC[C@H](C)[C@H](NC(=O)[C@H](C)NC(=O)[C@H](C)NC(=O)[C@@H]1CCCN1C(=O)[C@@H](NC(=O)[C@H](CC(C)C)NC(=O)[C@H](CCCCN)NC(=O)CNC(=O)[C@H](C)NC(=O)[C@H](CS)NC(=O)[C@H](CCCCN)NC(=O)[C@H](CCCCN)NC(=O)[C@H](CO)NC(=O)[C@@H](NC(=O)[C@H](CCCCN)NC(=O)[C@H](CS)NC(=O)[C@@H](NC(=O)[C@H](CCCCN)NC(=O)[C@H](CC(C)C)NC(=O)[C@@H](NC(=O)[C@H](C)NC(=O)CNC(=O)[C@H](CC(C)C)NC(=O)[C@@H](N)Cc1ccccc1)C(C)C)C(C)C)[C@@H](C)CC)C(C)C)C(=O)O` [FLGAVLKVCKISKKCAGKLVPAAI] was tested, and the MIC [1] was no less than 128 µM, the MIC [2] was no less than 128 µM and the MIC [3] was no less than 32 µM. For the same molecule, the MIC [4] was no less than 256 µM, the MIC [5] was 128 µM (≈ 315 µg/mL) and the MIC [6] was 16 µM (≈ 39.3 µg/mL). For the same molecule, the MIC [7] was no less than 128 µM.

`CC[C@H](C)[C@H](NC(=O)[C@H](C)NC(=O)[C@H](CO)NC(=O)[C@@H](NC(=O)[C@H](C)NC(=O)[C@H](CCCCN)NC(=O)[C@@H]1CCCN1C(=O)[C@@H](NC(=O)[C@H](CC(C)C)NC(=O)[C@H](CO)NC(=O)[C@H](CC(C)C)NC(=O)[C@@H](N)Cc1ccccc1)[C@@H](C)CC)[C@@H](C)CC)C(=O)N[C@@H](CO)C(=O)N[C@@H](C)C(=O)N[C@@H](CC(C)C)C(=O)N[C@H](C(=O)N[C@@H](CC(N)=O)C(=O)N[C@@H](Cc1cnc[nH]1)C(=O)N[C@@H](Cc1ccccc1)C(N)=O)[C@@H](C)CC` [FLSLIPKAISAISALINHF] showed an MIC [1] of no less than 32 µM, an MIC [2] of no less than 32 µM and an MIC [3] of 2 µM (≈ 4.11 µg/mL). For the same molecule, the MIC [4] was no less than 512 µM, the MIC [5] was greater than 512 µM and the MIC [6] was no less than 512 µM. For the same molecule, the MIC [7] was 4 µM (≈ 8.22 µg/mL).

For `CC[C@H](C)[C@H](NC(=O)[C@H](CO)NC(=O)[C@@H]1CCCN1C(=O)[C@H](CC(C)C)NC(=O)[C@@H](NC(=O)[C@H](CCCCN)NC(=O)[C@H](C)NC(=O)[C@H](C)NC(=O)[C@H](CC(C)C)NC(=O)CNC(=O)[C@H](C)NC(=O)[C@@H](NC(=O)[C@@H](NC(=O)[C@@H]1CCCN1C(=O)[C@H](CC(C)C)NC(=O)[C@@H](N)Cc1ccccc1)C(C)C)C(C)C)C(C)C)C(=O)N[C@H](C(=O)N[C@H]1CSSC[C@@H](C(=O)O)NC(=O)[C@H](CCCCN)NC(=O)[C@H](CCCCN)NC(=O)[C@H]([C@@H](C)O)NC(=O)[C@H](C(C)C)NC(=O)[C@H](C)NC1=O)[C@@H](C)CC` [FLPVVAGLAAKVLPSIICAVTKKC], the MIC [8] was no less than 52.4 µM, the MIC [9] was 7 µM (≈ 17.1 µg/mL) and the MIC [10] was 2.32 µM (≈ 5.65 µg/mL).

`CC[C@H](C)[C@@H]1NC(=O)[C@H](C)NC(=O)[C@@H](NC(=O)[C@H](Cc2ccccc2)NC(=O)[C@@H](NC(=O)[C@H](CCCCN)NC(=O)[C@H](CO)NC(=O)[C@H](Cc2ccccc2)NC(=O)[C@@H](NC(=O)[C@H](CC(N)=O)NC(=O)[C@H](C)NC(=O)[C@H](C)NC(=O)[C@@H](NC(=O)[C@H](CO)NC(=O)[C@H](C)NC(=O)[C@@H](NC(=O)[C@@H](NC(=O)[C@@H]2CCCN2C(=O)[C@H](CC(C)C)NC(=O)[C@@H](N)Cc2ccccc2)[C@@H](C)CC)[C@@H](C)CC)C(C)C)C(C)C)[C@@H](C)CC)CSSC[C@@H](C(=O)O)NC(=O)[C@H](CCCCN)NC(=O)[C@H](CCCCN)NC(=O)[C@H](CO)NC1=O` [FLPIIASVAANVFSKIFCAISKKC] gave an MIC [9] of 27 µM (≈ 69.4 µg/mL), an MIC [11] of 78 µM (≈ 200 µg/mL) and an MIC [12] of 29 µM (≈ 74.5 µg/mL).

`CC[C@H](C)[C@@H]1NC(=O)[C@H](C)NC(=O)[C@@H](NC(=O)[C@H](Cc2ccccc2)NC(=O)[C@@H](NC(=O)[C@H](CCCCN)NC(=O)[C@@H]2CCCN2C(=O)[C@H](CC(C)C)NC(=O)[C@@H](N)Cc2ccccc2)[C@@H](C)CC)CSSC[C@@H](C(=O)O)NC(=O)[C@H](CCCCN)NC(=O)[C@H](CCCCN)NC(=O)[C@H]([C@@H](C)O)NC1=O` [FLPKIFCAITKKC] showed an MIC [1] of no less than 256 µM, an MIC [2] of no less than 512 µM and an MIC [3] of no less than 256 µM. It also gave an MIC [4] of no less than 512 µM, an MIC [5] greater than 512 µM and an MIC [6] of no less than 256 µM. For the same molecule, the MIC [7] was no less than 512 µM.

Molecule `CC[C@H](C)[C@H](NC(=O)[C@@H](NC(=O)[C@@H](NC(=O)[C@H](CCCN=C(N)N)NC(=O)[C@H](CCCN=C(N)N)NC(=O)[C@H](C)NC(=O)[C@H](CC(C)C)NC(=O)[C@@H](N)CCCN=C(N)N)C(C)C)C(C)C)C(=O)N[C@@H](CCCN=C(N)N)C(=O)N[C@H](C(=O)N[C@@H](C)C(=O)N[C@@H](CCCN=C(N)N)C(N)=O)C(C)C` [RLARRVVIRVAR] has an MIC [13] of no less than 43 µM, an MIC [14] of 85.3 µM (≈ 125 µg/mL) and an MIC [15] of 10.9 µM (≈ 16 µg/mL). It also gave an MIC [16] of 21.2 µM (≈ 31 µg/mL), an MIC (Candida albicans) of 85.3 µM (≈ 125 µg/mL) and an MIC [17] of 43 µM (≈ 63 µg/mL). For the same molecule, the MIC (Escherichia coli UB1005) was 10.9 µM (≈ 16 µg/mL).

Work on `CC[C@H](C)[C@H](NC(=O)[C@H](CCCCN)NC(=O)[C@H](Cc1c[nH]c2ccccc12)NC(=O)[C@H](CCCNC(=N)N)NC(=O)[C@@H](N)CCCNC(=N)N)C(=O)N[C@H](C(=O)N[C@H](C(=O)N[C@H](C(=O)N[C@@H](CCCNC(=N)N)C(=O)N[C@@H](Cc1c[nH]c2ccccc12)C(=O)N[C@@H](CCCNC(=N)N)C(=O)N[C@@H](CCCNC(=N)N)C(=O)O)[C@@H](C)CC)C(C)C)C(C)C` [RRWKIVVIRWRR] yielded an MIC [13] of 5.6 µM (≈ 9.66 µg/mL), an MIC [14] of 1.4 µM (≈ 2.41 µg/mL) and an MIC [15] of 0.3 µM (≈ 0.517 µg/mL). For the same molecule, the MIC [16] was 2.8 µM (≈ 4.83 µg/mL), the MIC (Candida albicans) was 11.1 µM (≈ 19.1 µg/mL) and the MIC [17] was 0.7 µM (≈ 1.21 µg/mL). For the same molecule, the MIC (Escherichia coli UB1005) was 1.4 µM (≈ 2.41 µg/mL).

For `CC[C@H](C)[C@H](NC(=O)[C@H](CCCCN)NC(=O)[C@H](CO)NC(=O)[C@H](Cc1c[nH]c2ccccc12)NC(=O)[C@H](CC(C)C)NC(=O)CN)C(=O)N[C@@H](CCCCN)C(=O)N[C@@H](CC(=O)O)C(=O)N[C@@H](C)C(=O)N[C@@H](C)C(=O)N[C@@H](CCCCN)C(=O)N[C@H](C(=O)N[C@@H](C)C(=O)NCC(=O)N[C@@H](CCCCN)C(=O)N[C@@H](C)C(=O)N[C@@H](C)C(=O)N[C@@H](CC(C)C)C(=O)NCC(=O)N[C@@H](Cc1ccccc1)C(=O)N[C@H](C(=O)N[C@@H](CC(N)=O)C(=O)N[C@@H](CCC(=O)O)C(=O)N[C@@H](CCSC)C(=O)N[C@H](C(N)=O)C(C)C)C(C)C)[C@@H](C)O` [GLWSKIKDAAKTAGKAALGFVNEMV], the MIC [1] was no less than 32 µM, the MIC [2] was 16 µM (≈ 41.7 µg/mL) and the MIC [3] was 16 µM (≈ 41.7 µg/mL). It also gave an MIC [4] of 8 µM (≈ 20.8 µg/mL), an MIC [5] of 16 µM (≈ 41.7 µg/mL) and an MIC [6] of 8 µM (≈ 20.8 µg/mL). It also gave an MIC [7] of no less than 64 µM.

Work on `CC[C@H](C)[C@H](NC(=O)CNC(=O)[C@H](CO)NC(=O)[C@@H](NC(=O)[C@@H](NC(=O)[C@H](CCCCN)NC(=O)[C@H](C)NC(=O)[C@H](CC(C)C)NC(=O)[C@H](C)NC(=O)CNC(=O)[C@H](CC(C)C)NC(=O)[C@@H](N)Cc1ccccc1)[C@@H](C)CC)[C@@H](C)CC)C(=O)N[C@@H](Cc1ccccc1)C(N)=O` [FLGALAKIISGIF] yielded an MIC [9] of 4 µM (≈ 5.39 µg/mL) and an MIC [11] greater than 100 µM.

`CC[C@H](C)[C@H](NC(=O)[C@H](CCCN=C(N)N)NC(=O)[C@H](CC(C)C)NC(=O)[C@H](CCC(N)=O)NC(=O)[C@@H](N)C(C)C)C(=O)N[C@@H](CCCN=C(N)N)C(=O)N[C@H](C(=O)N[C@@H](CCCN=C(N)N)C(=O)N[C@H](C(=O)N[C@H](C(=O)N[C@@H](CCCN=C(N)N)C(=O)N[C@@H](CCCCN)C(N)=O)[C@@H](C)CC)C(C)C)C(C)C` [VQLRIRVRVIRK] gave an MIC [13] of 3.91 µM (≈ 6 µg/mL), an MIC [15] of 1.04 µM (≈ 1.6 µg/mL) and an MIC [16] of 3.91 µM (≈ 6 µg/mL). The MIC (Candida albicans) was 3.91 µM (≈ 6 µg/mL), the MIC [17] was 7.81 µM (≈ 12 µg/mL) and the MIC (Escherichia coli UB1005) was 1.95 µM (≈ 3 µg/mL).

With `CC[C@H](C)[C@H](N)C(=O)N1CCC[C@H]1C(=O)N[C@@H](Cc1cnc[nH]1)C(=O)N[C@@H](C)C(=O)N[C@H](C(=O)N[C@@H](CCCCN)C(=O)N[C@@H](C)C(=O)N[C@H](C(=O)N[C@@H](CO)C(=O)N[C@@H](CC(=O)O)C(=O)N[C@@H](CC(C)C)C(=O)N[C@H](C(N)=O)[C@@H](C)CC)[C@@H](C)CC)C(C)C` [IPHAVKAISDLI] the MIC [9] was no less than 200 µM, the MIC [11] was greater than 200 µM and the MIC [12] was no less than 200 µM.
